Experimental data taken from patent US20080181866A1, “Amido Anti-viral Compounds” (Genelabs Technologies, Inc., priority 2006, published 2008).

Tested on: HCV replication
Test: HCV replicon assay (luciferase) in ET (Huh-lucubineo-ET) cell line
Type: cell-based
Conditions: Hepatitis C virus, tested at 5 μM; ET replicon cells; luciferase activity measured 48-72 hours later; relative to no compound control
Outline: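 Huh-lucubineo-ET cells stably carry a subgenomic replicon with a firefly luciferase–ubiquitin–neo fusion and adaptive NS3-5B mutations; they were seeded 24 h before compound addition (0.1 nM–50 μM, 0.5% DMSO). Luciferase was read 48–72 h later as % inhibition versus no-compound control, with parallel WST-1 cytotoxicity. EC50 and TC50 came from 10-point 2-fold dilutions fitted to a Hill equation.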

## O=C(Cc1ccc(NC(=O)[C@@H]2CSC(c3ccncc3)N2C(=O)OCc2ccccc2)cc1)NC1CC1 (stereo partly drawn) [Compound 7068, 4-(4-Cyclopropylcarbamoylmethyl-phenylcarbamoyl)-2-pyridin-4-yl-thiazolidine-3-carboxylic acid benzyl ester]
  inhibition at 5 µM: 6%

## COC(=O)c1cccc(C2SC[C@@H](C(=O)Nc3nc(-c4ccc(C(=O)NC5CC5)cc4)cs3)N2C(=O)OCc2ccccc2)c1 (mixture of isomers) [Compound 7057, (R)-4-[4-(4-Cyclopropylcarbamoyl-phenyl)-thiazol-2-ylcarbamoyl]-2-(3-methoxycarbonyl-phenyl)-thiazolidine-3-carboxylic acid benzyl ester]
  inhibition at 5 µM: 100%

## O=C(NC1CC1)c1ccc(-c2csc(NC(=O)[C@@H]3COC(c4ccccc4)N3C(=O)OCc3ccccc3)n2)cc1 (stereo partly drawn) [Compound 7046, (S)-4-[4-(4-Cyclopropylcarbamoyl-phenyl)-thiazol-2-ylcarbamoyl]-2-phenyl-oxazolidine-3-carboxylic acid benzyl ester]
  inhibition at 5 µM: 99.1%

## O=C(NCc1ccccc1)c1ccc(NC(=O)[C@@H]2CSC(c3ccncc3)N2C(=O)OCc2ccccc2)cc1 (stereo partly drawn) [Compound 7075, 4-(4-Benzylcarbamoyl-phenylcarbamoyl)-2-pyridin-4-yl-thiazolidine-3-carboxylic acid benzyl ester]
  inhibition at 5 µM: 21.3%

## CC(C)(C)OC(=O)N1c2ccccc2C[C@H]1C(=O)Nc1nc(-c2ccc(C(=O)NC3CC3)cc2)cs1 [Compound 7020, (S)-2-[4-(4-Cyclopropylcarbamoyl-phenyl)-thiazol-2-ylcarbamoyl]-2,3-dihydro-indole-1-carboxylic acid tert-butyl ester]
  inhibition at 5 µM: 99.5%

## O=C(NC1CC1)c1ccc(-c2csc(NC(=O)[C@@H]3CSC(C4CCCNC4)N3C(=O)OCc3ccccc3)n2)cc1 (mixture of isomers) [Compound 7021, (R)-4-[4-(4-Cyclopropylcarbamoyl-phenyl)-thiazol-2-ylcarbamoyl]-2-piperidin-3-yl-thiazolidine-3-carboxylic acid benzyl ester]
  inhibition at 5 µM: 100%

## O=C(O)c1cccc(C2SC[C@@H](C(=O)Nc3nc(-c4ccc(C(=O)NC5CC5)cc4)cs3)N2C(=O)OCc2ccccc2)c1 (mixture of isomers) [Compound 7034, (R)-2-(3-Carboxy-phenyl)-4-[4-(4-cyclopropylcarbamoyl-phenyl)-thiazol-2-ylcarbamoyl]-thiazolidine-3-carboxylic acid benzyl ester]
  inhibition at 5 µM: 98.7%

## CNC(=O)CCC1SC[C@@H](C(=O)Nc2nc(-c3ccc(C(=O)NC4CC4)cc3)cs2)N1C(=O)OCc1ccccc1 (stereo in doubt) [Compound 7091, 4-[4-(4-Cyclopropylcarbamoyl-phenyl)-thiazol-2-ylcarbamoyl]-2-(2-methylcarbamoyl-ethyl)-thiazolidine-3-carboxylic acid benzyl ester]
  inhibition at 5 µM: 100%

## O=C(NC1CC1)c1ccc(-c2csc(NC(=O)[C@@H]3CSC(c4cnco4)N3C(=O)OCc3ccccc3)n2)cc1 (mixture of isomers) [Compound 7036, (R)-4-[4-(4-Cyclopropylcarbamoyl-phenyl)-thiazol-2-ylcarbamoyl]-2-oxazol-5-yl-thiazolidine-3-carboxylic acid benzyl ester]
  inhibition at 5 µM: 99.8%

## Cc1cccc2[nH]c(Cc3ccc(NC(=O)[C@@H]4CSC(c5ccncc5)N4C(=O)OCc4ccccc4)cc3)nc12 (stereo partly drawn) [Compound 7084, 4-[4-(4-Methyl-1H-benzoimidazol-2-ylmethyl)-phenylcarbamoyl]-2-pyridin-4-yl-thiazolidine-3-carboxylic acid benzyl ester]
  inhibition at 5 µM: 14.2%

## O=C(NC1CC1)c1ccc(-c2csc(NC(=O)[C@@H]3C[C@@H]4CCCC[C@@H]4N3C(=O)OCc3ccccc3)n2)cc1 [Compound 7043, (2S,3aS,7aS)-2-[4-(4-Cyclopropylcarbamoyl-phenyl)-thiazol-2-ylcarbamoyl]-octahydro-indole-1-carboxylic acid benzyl ester]
  inhibition at 5 µM: 100%

## O=C(Nc1nc(-c2ccccc2)cs1)[C@@H]1Cc2ccccc2N1C(=O)OCc1ccccc1 [Compound 7023, (S)-2-(4-Phenyl-thiazol-2-ylcarbamoyl)-2,3-dihydro-indole-1-carboxylic acid benzyl ester]
  inhibition at 5 µM: 78.5%

## O=C(NC1CC1)c1ccc(-c2csc(NC(=O)[C@@H]3CSC4(CCCCC4)N3C(=O)OCc3ccccc3)n2)cc1 [Compound 7093, 3-[4-(4-Cyclopropylcarbamoyl-phenyl)-thiazol-2-ylcarbamoyl]-1-thia-4-aza-spiro[4.5]decane-4-carboxylic acid benzyl ester]
  inhibition at 5 µM: 100%

## CC(C)(C)OC(=O)NCc1ccc(NC(=O)[C@@H]2CSC(c3ccncc3)N2C(=O)OCc2ccccc2)cc1 (stereo partly drawn) [Compound 7078, 4-[4-(tert-Butoxycarbonylamino-methyl)-phenylcarbamoyl]-2-pyridin-4-yl-thiazolidine-3-carboxylic acid benzyl ester]
  inhibition at 5 µM: 35.6%

## O=C(NC1CC1)c1ccc(-c2csc(NC(=O)[C@@H]3CSC(c4cncs4)N3C(=O)OCc3ccccc3)n2)cc1 (mixture of isomers) [Compound 7015, (R)-4-[4-(4-Cyclopropylcarbamoyl-phenyl)-thiazol-2-ylcarbamoyl]-4,5-dihydro-[2,5′]bithiazolyl-3-carboxylic acid benzyl ester]
  inhibition at 5 µM: 100%

## Cn1ccnc1C(=O)N1C(C2CCOCC2)SC[C@H]1C(=O)Nc1nc(-c2ccc(C(=O)NC3CC3)cc2)cs1 (stereo partly drawn) [Compound 7092, 3-(1-Methyl-1H-imidazole-2-carbonyl)-2-(tetrahydro-pyran-4-yl)-thiazolidine-4-carboxylic acid [4-(4-cyclopropylcarbamoyl-phenyl)-thiazol-2-yl]-amide]
  inhibition at 5 µM: 89.4%

## Cc1ccc2[nH]c(Cc3ccc(NC(=O)[C@@H]4CSC(c5ccncc5)N4C(=O)OCc4ccccc4)cc3)nc2c1 (stereo partly drawn) [Compound 7117, 4-[4-(5-Methyl-1H-benzoimidazol-2-ylmethyl)-phenylcarbamoyl]-2-pyridin-4-yl-thiazolidine-3-carboxylic acid benzyl ester]
  inhibition at 5 µM: 42.4%

## O=C(Nc1cccnc1)c1ccc(-c2csc(NC(=O)[C@@H]3CSC4(CCOCC4)N3C(=O)OCc3ccccc3)n2)cc1 [Compound 7139, 3-{4-[4-(Pyridin-3-ylcarbamoyl)-phenyl]-thiazol-2-ylcarbamoyl}-8-oxa-1-thia-4-aza-spiro-[4.5]decane-4-carboxylic acid benzyl ester]
  inhibition at 5 µM: 100%

## CCCC(C)C(=O)N1C(C2CCOCC2)SC[C@H]1C(=O)Nc1nc(-c2ccc(C(=O)NC3CC3)cc2)cs1 (stereo in doubt) [Compound 7103, 3-(2-Methyl-pentanoyl)-2-(tetrahydro-pyran-4-yl)-thiazolidine-4-carboxylic acid [4-(4-cyclopropylcarbamoyl-phenyl)-thiazol-2-yl]-amide]
  inhibition at 5 µM: 99.8%

## CN(C)C(=O)CCCCC1SC[C@@H](C(=O)Nc2nc(-c3ccc(C(=O)NC4CC4)cc3)cs2)N1C(=O)OCc1ccccc1 (mixture of isomers) [Compound 7125, 4-[4-(4-Cyclopropylcarbamoyl-phenyl)-thiazol-2-ylcarbamoyl]-2-(4-dimethylcarbamoyl-butyl)-thiazolidine-3-carboxylic acid benzyl ester]
  inhibition at 5 µM: 100%

## O=C(NC1CC1)c1ccc(-c2csc(NC(=O)[C@@H]3CSC(c4ccncc4F)N3C(=O)OCc3ccccc3)n2)cc1 (mixture of isomers) [Compound 7008, (R)-4-[4-(4-Cyclopropylcarbamoyl-phenyl)-thiazol-2-ylcarbamoyl]-2-(3-fluoro-pyridin-4-yl)-thiazolidine-3-carboxylic acid benzyl ester]
  inhibition at 5 µM: 100%

## N#Cc1ccc(C2SC[C@@H](C(=O)Nc3nc(-c4ccc(C(=O)NC5CC5)cc4)cs3)N2C(=O)OCc2ccccc2)cc1 (mixture of isomers) [Compound 7017, (R)-2-(4-Cyano-phenyl)-4-[4-(4-cyclopropylcarbamoyl-phenyl)-thiazol-2-ylcarbamoyl]-thiazolidine-3-carboxylic acid benzyl ester]
  inhibition at 5 µM: 100%

## COC(=O)c1ccc(C2SC[C@@H](C(=O)Nc3nc(-c4ccc(C(=O)NC5CC5)cc4)cs3)N2C(=O)OCc2ccccc2)cc1 (mixture of isomers) [Compound 7051, (R)-4-[4-(4-Cyclopropylcarbamoyl-phenyl)-thiazol-2-ylcarbamoyl]-2-(4-methoxycarbonyl-phenyl)-thiazolidine-3-carboxylic acid benzyl ester]
  inhibition at 5 µM: 99.4%

## O=C(NC1CC1)c1ccc(-c2csc(NC(=O)[C@@H]3CC[C@H](c4ccc(CN5CCOCC5)cc4)N3C(=O)OCc3ccccc3)n2)cc1 [Compound 7045, (2S,5R)-2-[4-(4-Cyclopropylcarbamoyl-phenyl)-thiazol-2-ylcarbamoyl]-5-(4-morpholin-4-ylmethyl-phenyl)-pyrrolidine-1-carboxylic acid benzyl ester]
  inhibition at 5 µM: 100%

## CC(C)(C)OC(=O)N1C[C@@H](c2ccccc2)C[C@H]1C(=O)Nc1nc(-c2ccc(C(=O)NC3CC3)cc2)cs1 [Compound 7027, (2S,4R)-2-[4-(4-Cyclopropylcarbamoyl-phenyl)-thiazol-2-ylcarbamoyl]-4-phenyl-pyrrolidine-1-carboxylic acid tert-butyl ester]
  inhibition at 5 µM: 6.9%

## O=C(Nc1ccc(CNS(=O)(=O)c2ccccc2)cc1)[C@@H]1CSC(c2ccncc2)N1C(=O)OCc1ccccc1 (stereo partly drawn) [Compound 7111, 4-[4-(Benzenesulfonylamino-methyl)-phenylcarbamoyl]-2-pyridin-4-yl-thiazolidine-3-carboxylic acid benzyl ester]
  inhibition at 5 µM: 43%

## O=C(NC1CCCC1)c1ccc(-c2csc(NC(=O)[C@@H]3CSC(c4ccncc4)N3C(=O)OCc3ccccc3)n2)cc1 (stereo partly drawn) [Compound 7012, 4-[4-(4-Cyclopentylcarbamoyl-phenyl)-thiazol-2-ylcarbamoyl]-2-pyridin-4-yl-thiazolidine-3-carboxylic acid benzyl ester]
  inhibition at 5 µM: 98.8%
